Experimental data reported in PMC6245189 (Molecules, 2008).

How the values were obtained:
[1] = biological target: T1, bovine testes hyaluronidase (BTH) (Bos taurus, UniProt Q2YDK3); assay: Morgan-Elson assay at pH […]; assay type: biochemical; details: read-out: IC50 [μM] / 3.5
T1 sequence (Q2YDK3 36-553): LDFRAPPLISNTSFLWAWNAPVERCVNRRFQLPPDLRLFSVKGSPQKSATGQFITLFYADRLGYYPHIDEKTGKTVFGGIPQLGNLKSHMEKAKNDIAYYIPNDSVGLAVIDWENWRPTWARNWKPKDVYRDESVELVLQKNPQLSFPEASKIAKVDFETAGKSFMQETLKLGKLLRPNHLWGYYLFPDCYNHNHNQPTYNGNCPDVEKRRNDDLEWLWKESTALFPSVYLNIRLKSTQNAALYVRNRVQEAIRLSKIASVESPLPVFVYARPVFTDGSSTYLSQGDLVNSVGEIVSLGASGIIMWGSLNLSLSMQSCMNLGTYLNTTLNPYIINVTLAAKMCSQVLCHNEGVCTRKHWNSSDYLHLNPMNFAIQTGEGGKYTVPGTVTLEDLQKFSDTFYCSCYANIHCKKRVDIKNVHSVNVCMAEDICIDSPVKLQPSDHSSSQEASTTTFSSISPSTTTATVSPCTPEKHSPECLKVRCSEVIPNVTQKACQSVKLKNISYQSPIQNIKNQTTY

[2] = biological target: T1, bovine testes hyaluronidase (BTH); assay: stains-all assay at pH […] and Morgan-Elson assay at pH […]; assay type: biochemical; details: read-out: IC50 [μM] / pH7

Row | IC50 [1] | IC50 [2] | SMILES
1 | 8 µM |  | CCCCCCCCCCCCCCCC(=O)OC[C@H](O)[C@H]1OC(=O)C(O)=C1O [6-palmitoyl-L-ascorbic acid]
2 |  | 107 µM | Oc1ccc(-c2[nH]c3ccccc3c2-c2ccccc2)cc1 [compound 12, 4-(3-Phenyl-1H-indol-2-yl)phenol]
